Like-named read-outs stand apart in the source and are kept apart here.
Biological target: T1, human mAChR M1 (Homo sapiens, UniProt P11229)
T1 sequence (P11229 1-460): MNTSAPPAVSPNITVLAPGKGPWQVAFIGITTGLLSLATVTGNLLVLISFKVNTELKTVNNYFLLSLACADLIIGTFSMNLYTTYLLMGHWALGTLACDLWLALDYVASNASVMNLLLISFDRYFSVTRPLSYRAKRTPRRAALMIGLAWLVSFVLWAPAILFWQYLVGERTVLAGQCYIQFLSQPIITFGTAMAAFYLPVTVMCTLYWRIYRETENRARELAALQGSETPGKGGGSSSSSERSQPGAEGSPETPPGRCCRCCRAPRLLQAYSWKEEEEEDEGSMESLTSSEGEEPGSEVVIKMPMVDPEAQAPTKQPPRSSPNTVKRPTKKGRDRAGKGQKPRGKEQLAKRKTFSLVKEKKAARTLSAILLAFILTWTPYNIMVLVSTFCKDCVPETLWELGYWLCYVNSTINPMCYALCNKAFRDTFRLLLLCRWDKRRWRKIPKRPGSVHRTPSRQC
Experiment: mAChR M1 cell-based functional assay: calcium mobilization, positive allosteric modulator mode (increase in EC20 acetylcholine response)
Settings: for Emax: read-out: Human M1 Emax (%)
In short: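 Calcium-flux assay in CHO-K1 cells stably expressing human M1, loaded with Fluo-4 AM (50 min, 37 °C) and read at 1 Hz. Compound (11-point, 1:3 series) was added at 4 s, EC20 acetylcholine at 144 s and EC80 at 230 s. PAM activity is the concentration-dependent rise in the EC20 response, fitted with a four-parameter logistic.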

[1] = Table 2, human M1, read-out: Human M1 EC50

EC50 [1]	Emax (Table 2, human M1)	EC50 (Table 1, mAChR M1 cell-based functional assay, PAM mode, species not given, read-out: EC50)	EC50	Structure (SMILES)
2920 nM	79.3%	–	–	Cc1csc2c(Cc3ccc(-c4ccn(C)n4)cc3)cc(C(=O)N[C@H]3CCOC3)nc12 [Compound 306]
6140 nM	75.5%	–	–	Cc1nc(-c2ccc(Cc3cc(C(=O)N(C)C4CCOCC4)nc4ccsc34)cc2)cs1 [Compound 190]
183 nM	84%	–	–	Cc1nc(-c2ccc(Cc3cc(C(=O)N[C@@H]4CCC[C@H]4O)nc4ccsc34)cc2)cs1 [Compound 182, N-[(1R,2R)-2-hydroxycyclopentyl]-7-[[4-(2-methylthiazol-4-yl)phenyl]methyl]thieno[3,2-b]pyridine-5-carboxamide]
6030 nM	50.2%	–	–	Cn1cc(-c2cc(F)c(Cc3cc(C(=O)N[C@H]4CCC[C@@H]4O)nc4ccsc34)c(F)c2)cn1 [Compound 58, 7-[[2,6-difluoro-4-(1-methylpyrazol-4-yl)phenyl]methyl]-N-[(1S,2S)-2-hydroxycyclopentyl]thieno[3,2-b]pyridine-5-carboxamide]
41 nM	52.5%	–	–	Cn1ccc2nc(C(=O)N[C@H]3CCCC[C@@H]3O)cc(Cc3ccc(-c4nccs4)cc3)c21 [Compound 479, N-[(1S,2S)-2-hydroxycyclohexyl]-1-methyl-7-[(4-thiazol-2-ylphenyl)methyl]pyrrolo[3,2-b]pyridine-5-carboxamide]
–	–	> 10000 nM	–	Cc1ccc(Oc2cc(C(=O)N[C@H]3CCC[C@@H]3O)nc3ccsc23)cn1 [Compound 18, N-[(1S,2S)-2-hydroxycyclopentyl]-7-[(6-methyl-3-pyridyl)oxy]thieno[3,2-b]pyridine-5-carboxamide]
1080 nM	72.9%	–	–	COCCCNC(=O)c1cc(Cc2ccc(-n3cccn3)cc2)c2sccc2n1 [Compound 430, N-(3-methoxypropyl)-7-[(4-pyrazol-1-ylphenyl)methyl]thieno[3,2-b]pyridine-5-carboxamide]
141 nM	80.5%	–	–	Cc1nc(-c2ccc(Cc3cc(C(=O)N[C@@H]4CCC[C@H]4O)nc4ccsc34)cc2)co1 [Compound 159, N-[(1R,2R)-2-hydroxycyclopentyl]-7-[[4-(2-methyloxazol-4-yl)phenyl]methyl]thieno[3,2-b]pyridine-5-carboxamide]
3980 nM	60.7%	–	–	Cc1csc2c(Cc3ccc(-n4cccn4)cc3)cc(C(=O)NCC3CCCCO3)nc12 (stereo not shown) [Compound 320, 3-methyl-7-[(4-pyrazol-1-ylphenyl)methyl]-N-(tetrahydropyran-2-ylmethyl)thieno[3,2-b]pyridine-5-carboxamide]
3200 nM	72.1%	–	–	Cc1nc(-c2ccc(Cc3cc(C(=O)NC4CCN(C)CC4)nc4ccsc34)cc2)cs1 [Compound 187, N-(1-methyl-4-piperidyl)-7-[[4-(2-methylthiazol-4-yl)phenyl]methyl]thieno[3,2-b]pyridine-5-carboxamide]
474 nM	88.5%	–	–	Cc1ccc(Cc2cc(C(=O)N[C@@H]3CCCCC[C@H]3O)nc3c(C)csc23)cn1 [Compound 107]
2780 nM	92.7%	–	–	Cc1ccc(Cc2cc(C(=O)NC3CCCCNC3=O)nc3ccsc23)cn1 (stereo not shown) [Compound 67, 7-[(6-methyl-3-pyridyl)methyl]-N-(2-oxoazepan-3-yl)thieno[3,2-b]pyridine-5-carboxamide]
–	–	–	87 nM	Cc1ccc(Cc2cc(C(=O)N[C@H]3CCCC[C@@H]3O)nc3ccsc23)cn1 [Compound 1, N-((1S,2S)-2-Hydroxycyclohexyl)-7-((6-methylpyridin-3-yl)methyl)thieno[3,2-b]pyridine-5-carboxamide]
3130 nM	84.9%	–	–	O=C(N[C@H]1CC[C@@H]1O)c1cc(Cc2ccc(C(F)(F)F)nc2)c2sccc2n1 [Compound 87, N-[(1S,2S)-2-hydroxycyclobutyl]-7-[[6-(trifluoromethyl)-3-pyridyl]methyl]thieno[3,2-b]pyridine-5-carboxamide]
637 nM	70.6%	–	–	Cn1ccc(-c2ccc(Cc3cc(C(=O)N[C@@H]4CCCOC4)nc4ccsc34)cn2)n1 [Compound 423]

— patent US11111251B2, “Positive allosteric modulators of the muscarinic acetylcholine receptor M1” (Vanderbilt University, priority 2016, dated 2021)
